Measurements published in patent US8716285B2, “N-hydroxy-benzamids for the treatment of cancer” (Hoffmann-La Roche Inc., priority 2010, dated 2014).

Assays:
[1] = tested on: p21 promoter-luciferase construct; test: p21 reporter gene induction in HeLa cells transfected with p21 promoter-luciferase construct; format: cell-based; settings: for p21 RP3: relative gene level of p21 induced compared to MS275 at 3 μM; for p21 RP10: relative level of p21 induced compared to MS275 at 10 μM; for p21 RP30: relative level of p21 induced compared to MS275 at 30 μM
Description: As a surrogate for in-cell HDAC1/2/3 inhibition, p21 induction was used as a counterscreen to evaluate the selectivity of the compounds in the present invention toward HDAC6 or HDAC8.
The novel compounds of the present invention were tested for their ability to induce p21 gene expression using a reporter gene assay involving HeLa cells transfected with a p21 promoter-luciferase construct. The p21 promoter contained the Sp1/Sp3 binding site for HDAC but not the upstream p53 binding site. Briefly, the day before transfection, HeLa cells were seeded at 11,000 cells/well in a 96-well culture plate and incubated at 37° C. in 5% CO2 overnight. A transfection media was prepared prior to transfection according to the following procedure: (1) 5 μl serum-free DMEM, 0.15 μl Fugene 6 reagent, 40 ng p21-luc, 10 ng GFP were mixed gently and incubated at rt for 30 minutes; (2), then 98 μl DMEM (with 10% FBS, 1% penicillin and streptomycin) was added to the DNA: Fugene 6 reagent complex and mixed gently. For transfection, the medium was removed and replaced with 100 μl/well transfection media which was prepared according to the procedure above. After incubating the cells for 24 hours at 37° C. in 5% CO2, fresh media and test compounds were added to the wells and the cells further incubated for 15 hours at 37° C. in 5% CO2. Cells were lysed by adding 80 μl/well of a cell culture lysis reagent (Promega). […] 100 μl luciferase assay reagent (Promega) was then added to every 20 μl cell lysate for luminometer detection. […] Induction activity for specific representative compounds can be found in Table 3.

HDAC6 = HDAC6 (Homo sapiens (Human), UniProt Q9UBN7); test: Tubulin acetylation cytoblot assay (A549 cells); format: cell-based; settings: 17-18 h, concentration for 50% induction of acetylated tubulin, read-out: Tub-ac EC50
Sequence of HDAC6 (Q9UBN7 whole entry): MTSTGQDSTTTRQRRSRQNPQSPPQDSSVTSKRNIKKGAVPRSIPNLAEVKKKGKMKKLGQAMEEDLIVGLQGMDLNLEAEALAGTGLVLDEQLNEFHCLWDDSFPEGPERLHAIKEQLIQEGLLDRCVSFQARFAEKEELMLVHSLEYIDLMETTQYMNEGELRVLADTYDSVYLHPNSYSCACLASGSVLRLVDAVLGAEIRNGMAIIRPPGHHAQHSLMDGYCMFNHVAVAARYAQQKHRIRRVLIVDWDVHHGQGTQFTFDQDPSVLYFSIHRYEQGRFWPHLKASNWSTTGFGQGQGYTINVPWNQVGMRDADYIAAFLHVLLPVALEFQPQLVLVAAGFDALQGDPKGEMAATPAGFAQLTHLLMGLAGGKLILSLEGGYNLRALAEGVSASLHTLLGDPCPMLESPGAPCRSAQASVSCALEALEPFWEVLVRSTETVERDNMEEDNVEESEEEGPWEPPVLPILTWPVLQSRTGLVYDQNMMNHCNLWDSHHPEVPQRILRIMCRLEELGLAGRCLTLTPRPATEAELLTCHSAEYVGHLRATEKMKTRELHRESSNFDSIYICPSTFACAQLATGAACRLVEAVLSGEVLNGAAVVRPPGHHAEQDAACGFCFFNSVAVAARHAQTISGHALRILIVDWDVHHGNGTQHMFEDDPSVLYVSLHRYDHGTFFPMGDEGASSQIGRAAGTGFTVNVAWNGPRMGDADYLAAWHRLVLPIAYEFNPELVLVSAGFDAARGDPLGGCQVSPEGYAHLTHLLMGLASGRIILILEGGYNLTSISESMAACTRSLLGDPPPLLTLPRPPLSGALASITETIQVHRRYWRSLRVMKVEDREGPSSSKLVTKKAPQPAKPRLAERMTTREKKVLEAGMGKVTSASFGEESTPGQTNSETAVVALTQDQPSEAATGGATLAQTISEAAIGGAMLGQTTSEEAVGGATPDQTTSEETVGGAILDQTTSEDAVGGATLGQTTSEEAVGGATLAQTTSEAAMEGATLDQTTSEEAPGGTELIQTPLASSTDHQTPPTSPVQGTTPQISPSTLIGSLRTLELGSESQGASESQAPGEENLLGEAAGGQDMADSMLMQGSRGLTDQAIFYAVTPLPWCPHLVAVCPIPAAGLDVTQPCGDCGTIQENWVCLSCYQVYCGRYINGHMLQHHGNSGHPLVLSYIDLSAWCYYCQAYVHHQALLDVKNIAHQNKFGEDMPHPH
Description: Tubulin acetylation is a PD marker for HDAC6 inhibition. The extent of tubulin acetylation represents the inhibitory effect on HDAC6.
Novel compounds were tested for their ability to inhibit HDAC6 using a cell-based deacetylation assay. Tubulin acetylation was detected by the anti-acetylated tubulin antibody (Sigma) and horse radish peroxidase (HRP) conjugated secondary antibody (KangChen Bio. Tech.). […] 20 μl of diluted compound solution was transferred to the cell culture plate and incubated for 17-18 h. After medium removal and fixation by formaldehyde (3.7% paraformaldehyde in TBS), the cells in the plates were treated with 180 μl of −20° C. MeOH and incubated for 5 min at rt. The cell lysis was incubated with 75 μl of primary anti-acetylated tubulin antibody and secondary HRP conjugated antibody solution (1:750 anti-acetylated tubulin, 1:750 HRP conjugated anti-mouse IgG in antibody dilution buffer not containing sodium azide) for 4 h at 4° C. By adding the HRP substrate, enhanced chemiluminescence (ECL) reagent (GE Healthcare) generated luminescence corresponding to the level of tubulin acetylation. So that 75 μl of ECL was added into the wells and the luminescence from each well was immediately quantified by the plate reader. Based on the luminescence reading, the IC50s against HDAC6 of the tested compounds were calculated by plotting the curve with XLfit4.0 software. Inhibition %=[signal(sample)−Mean(bottom)]*100/[Mean(top)−Mean(bottom)]

recombinant human HDAC8 = recombinant human HDAC8 (Homo sapiens (Human), UniProt Q9BY41); test: HDAC8 inhibition: recombinant HDAC8 fluorometric assay; format: biochemical; settings: recombinant human HDAC8, substrate Ac-Arg-His-Lys-Lys(ε-acetyl)-AMC
Sequence of recombinant human HDAC8 (Q9BY41 whole entry): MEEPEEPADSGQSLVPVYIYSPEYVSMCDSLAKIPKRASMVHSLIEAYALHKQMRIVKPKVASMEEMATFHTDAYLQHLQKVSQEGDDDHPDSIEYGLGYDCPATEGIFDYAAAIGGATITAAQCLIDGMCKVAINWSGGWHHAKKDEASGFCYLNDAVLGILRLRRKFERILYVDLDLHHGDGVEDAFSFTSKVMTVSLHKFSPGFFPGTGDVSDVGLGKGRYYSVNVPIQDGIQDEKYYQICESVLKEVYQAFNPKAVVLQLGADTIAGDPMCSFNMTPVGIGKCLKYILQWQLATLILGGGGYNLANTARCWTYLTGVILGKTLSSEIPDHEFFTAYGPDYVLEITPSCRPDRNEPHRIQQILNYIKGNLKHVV
Description: A competitive inhibitory assay of HDAC8 was carried out by using recombinant HDAC8 and a commercial substrate Ac-Arg-His-Lys-Lys(ε-acetyl)-AMC.
Compounds were tested for their ability to inhibit histone deacetylase 8 using an in vitro deacetylation assay. The enzyme source for this assay was recombinant human HDAC8 protein expressed and purified from insect cells. […] The substrate consisted of a commercial product Ac-Arg-His-Lys-Lys(ε-acetyl)-AMC (substrate is available from Cayman Chemical). […] In a detailed procedure, 8 μl of HDAC8 enzyme solution (0.125 μg/μl) was transferred to assay plates (CORNING 3676). 1 μl of half-log diluted compounds were added into wells and incubated for 15 min at rt. After that, 8 μl of substrate solution was transferred to the wells and incubated for 30 min at rt. After deacetylation of the substrate by incubation with HDAC8 enzyme, subsequent exposure to a developing reagent produced a fluorophore that was directly proportional to the level of deacetylation. So 4 μl of developer regent (Cayman 10006394) was added into the wells in the assay plates and incubated for 15 min. The fluorescence signal was measured by a FlexStation3 plate reader (excitation wave length 340-360 nm; emission wave length 440-465 nm). The IC50 was calculated after normalization and curve fitting using XLfit4.0 software. Inhibition %=[Mean(top)−signal(sample)]*100/[Mean(top)−Mean(bottom)].

SMILES	p21 RP3 [1]	p21 RP10 [1]	p21 RP30 [1]	EC50 (HDAC6) [nM]	IC50 (recombinant human HDAC8) [nM]
O=C(NO)c1ccc2c(c1)CC(Nc1nccc(-c3ccc(F)cc3)n1)CC2 (stereo not shown) [Example 12, 7-[4-(4-Fluoro-phenyl)-pyrimidin-2-ylamino]-5,6,7,8-tetrahydro-naphthalene-2-carboxylic acid hydroxyamide]	0.10	0.00	−0.10	970	260
CN(C)c1cccc(-c2ccnc(NC3CCc4ccc(C(=O)NO)cc4C3)n2)c1 (stereo not shown) [Example 16, 7-[4-(3-Dimethylamino-phenyl)-pyrimidin-2-ylamino]-5,6,7,8-tetrahydro-naphthalene-2-carboxylic acid hydroxyamid]	1.50	0.40	0.30	3460	800
Cc1ccc(-c2ccnc(NC3CCc4ccc(C(=O)NO)cc4C3)n2)c(F)c1 (stereo not shown) [Example 17, 7-[4-(2-Fluoro-4-methyl-phenyl)-pyrimidin-2-ylamino]-5,6,7,8-tetrahydro-naphthalene-2-carboxylic acid hydroxyamide]	−0.56	−0.47	−0.45	2300	1100
COc1ccc(-c2ccnc(NC3CCc4ccc(C(=O)NO)cc4C3)n2)c(OC)c1 (stereo not shown) [Example 18, 7-[4-(2,4-Dimethoxy-phenyl)-pyrimidin-2-ylamino]-5,6,7,8-tetrahydro-naphthalene-2-carboxylic acid hydroxyamide]	0.43	0.06	−0.06	1370	1230
O=C(NO)c1ccc2c(c1)CC(Nc1nccc(-c3ccc(C(F)(F)F)cc3)n1)CC2 (stereo not shown) [Example 19, 7-[4-(4-Trifluoromethyl-phenyl)-pyrimidin-2-ylamino]-5,6,7,8-tetrahydro-naphthalene-2-carboxylic acid hydroxyamid]	−0.18	−0.26	−0.29	5000	1690
O=C(NO)c1ccc2c(c1)CC(Nc1nccc(-c3ccc(Cl)cc3Cl)n1)CC2 (stereo not shown) [Example 20, 7-[4-(2,4-Dichloro-phenyl)-pyrimidin-2-ylamino]-5,6,7,8-tetrahydro-naphthalene-2-carboxylic acid hydroxyamide]	−0.71	−0.44	−0.40	6200	1520
Cc1cc(Cl)ccc1-c1ccnc(NC2CCc3ccc(C(=O)NO)cc3C2)n1 (stereo not shown) [Example 21, 7-[4-(4-Chloro-2-methyl-phenyl)-pyrimidin-2-ylamino]-5,6,7,8-tetrahydro-naphthalene-2-carboxylic acid hydroxyamide]	−0.24	−0.28	−0.32	9530	2150
O=C(NO)c1ccc2c(c1)CC(Nc1nccc(-c3ccc(F)c(Cl)c3)n1)CC2 (stereo not shown) [Example 22, 7-[4-(3-Chloro-4-fluoro-phenyl)-pyrimidin-2-ylamino]-5,6,7,8-tetrahydro-naphthalene-2-carboxylic acid hydroxyamide]	−0.87	−0.59	−0.52	6000	2240
Cc1ccc(-c2ccnc(NC3CCc4ccc(C(=O)NO)cc4C3)n2)cn1 (stereo not shown) [Example 25, 7-[4-(6-Methyl-pyridin-3-yl)-pyrimidin-2-ylamino]-5,6,7,8-tetrahydro-naphthalene-2-carboxylic acid hydroxyamide]	0.30	0.13	0.08	6200	480
Cc1cncc(-c2ccnc(NC3CCc4ccc(C(=O)NO)cc4C3)n2)c1 (stereo not shown) [Example 26, 7-[4-(5-Methyl-pyridin-3-yl)-pyrimidin-2-ylamino]-5,6,7,8-tetrahydro-naphthalene-2-carboxylic acid hydroxyamide]	0.68	0.20	−0.05	1520	520
COc1cncc(-c2ccnc(NC3CCc4ccc(C(=O)NO)cc4C3)n2)c1 (stereo not shown) [Example 27, 7-[4-(5-Methoxy-pyridin-3-yl)-pyrimidin-2-ylamino]-5,6,7,8-tetrahydro-naphthalene-2-carboxylic acid hydroxyamide]	0.35	0.05	−0.09	1900	520
COc1ccc(-c2ccnc(NC3CCc4ccc(C(=O)NO)cc4C3)n2)cn1 (stereo not shown) [Example 28, 7-[4-(6-Methoxy-pyridin-3-yl)-pyrimidin-2-ylamino]-5,6,7,8-tetrahydro-naphthalene-2-carboxylic acid hydroxyamide]	−0.20	−0.19	−0.24	5470	1000
O=C(NO)c1ccc2c(c1)CC(Nc1nccc(-c3ccc(Cl)nc3)n1)CC2 (stereo not shown) [Example 29, 7-[4-(6-Chloro-pyridin-3-yl)-pyrimidin-2-ylamino]-5,6,7,8-tetrahydro-naphthalene-2-carboxylic acid hydroxyamide]	0.39	0.07	−0.02	1430	900
O=C(NO)c1ccc2c(c1)CC(Nc1nccc(-c3cccnc3Cl)n1)CC2 (stereo not shown) [Example 30, 7-[4-(2-Chloro-pyridin-3-yl)-pyrimidin-2-ylamino]-5,6,7,8-tetrahydro-naphthalene-2-carboxylic acid hydroxyamide]	0.40	0.10	−0.03	600	510
